Our source for the IC50 values is patent US20240383911A1, “AZAINDAZOLE MACROCYCLE COMPOUNDS AND USES THEREOF” (BROADENBIO CO., LTD, priority 2021, published 2024).

One test concerns the target T1, FLT3 (Homo sapiens, UniProt P36888).
T1 sequence (P36888 27-993): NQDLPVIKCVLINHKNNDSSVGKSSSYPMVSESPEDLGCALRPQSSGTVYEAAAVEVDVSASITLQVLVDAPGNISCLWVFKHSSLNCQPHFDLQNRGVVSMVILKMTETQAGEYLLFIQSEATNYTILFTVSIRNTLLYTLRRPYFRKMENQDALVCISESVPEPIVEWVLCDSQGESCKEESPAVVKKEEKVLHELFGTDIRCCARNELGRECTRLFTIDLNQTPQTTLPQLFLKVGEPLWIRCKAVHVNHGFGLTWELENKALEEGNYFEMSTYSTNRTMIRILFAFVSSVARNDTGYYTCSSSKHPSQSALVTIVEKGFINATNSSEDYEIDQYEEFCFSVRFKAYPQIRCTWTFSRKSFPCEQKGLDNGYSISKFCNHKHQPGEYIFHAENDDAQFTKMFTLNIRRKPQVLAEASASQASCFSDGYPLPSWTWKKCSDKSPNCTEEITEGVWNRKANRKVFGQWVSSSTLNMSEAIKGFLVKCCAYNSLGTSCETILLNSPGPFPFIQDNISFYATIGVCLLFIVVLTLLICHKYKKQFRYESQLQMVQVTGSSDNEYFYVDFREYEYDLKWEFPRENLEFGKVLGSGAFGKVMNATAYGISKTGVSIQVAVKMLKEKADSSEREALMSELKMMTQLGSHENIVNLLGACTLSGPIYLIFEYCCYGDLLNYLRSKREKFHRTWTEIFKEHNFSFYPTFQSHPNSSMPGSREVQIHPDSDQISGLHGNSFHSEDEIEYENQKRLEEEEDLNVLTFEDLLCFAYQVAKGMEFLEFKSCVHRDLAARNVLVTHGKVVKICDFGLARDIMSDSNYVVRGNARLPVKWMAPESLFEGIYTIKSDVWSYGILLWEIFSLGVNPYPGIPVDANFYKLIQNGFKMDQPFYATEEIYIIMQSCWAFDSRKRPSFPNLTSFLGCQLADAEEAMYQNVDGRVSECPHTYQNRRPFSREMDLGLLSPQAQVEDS
Briefly: FLT3 kinase activity inhibition test (HTRF). The settings on record: read-out: IC50, inhibitory effects on FLT3 kinase activity. Type of test: biochemical. As to the method: (§1) Tested compounds: compounds prepared in the Examples of this invention.
(§2) Prepare compound stock solution: dissolve the test compound in 100% DMSO to make a 10 mM stock solution. Dilute the stock solution of the test compound by 5 times with 100% DMSO, make a 4-fold equal dilution in a 96-well dilution plate, add 1 μL of the compound to 39 μL of kinase reaction buffer (1×kinase buffer, 5 mM MgCl2, 1 mM DTT), and shake on a microplate shaker for 20 minutes. 4×Positive control (4 μL of positive compound solution of the starting concentration, add 196 μL of kinase buffer) and 4×negative control (4 μL of 100% DMSO, add 196 μL of kinase buffer).
(1) Use 1×kinase reaction buffer to prepare 2.5×FLT3 kinase solution (160 μM), transfer 2 μL of the kinase solution to the 384 reaction plate, and add 1 μL of the test compound solution of gradient concentration to the 384 reaction plate (Greiner, Cat #784075), centrifuge for 1 minute (1000 rpm), and incubate at 25° C. for 10 minutes.
(§3) (2) Use 1×kinase reaction buffer to prepare 2.5×TK-substrate-biotin (2.5 μM) and 2.5×ATP (2.5 μM), mix well, and add 2 μL of the TK-substrate-biotin/ATP solution to the 384 reaction plate, centrifuge for 30 seconds (1000 rpm), and incubate at 25° C. for 40 minutes.
(§4) (3) Use HTRF detection buffer to prepare 2×Sa-XL 665 (125 nM) and 1×TK-antibody-Cryptate. Add 5 μL of a mixture of Sa-XL 665 and TK-antibody-Cryptate solutions to each well, centrifuge for 30 seconds (1000 rpm), and react at room temperature for 1 hour.
(§5) (4) The fluorescence signal is read using a Biotek multi-function plate reader, and the IC50 (half inhibitory concentration) of the compound is obtained using a four-coefficient nonlinear fitting formula.

The target of a further test is KDR (Homo sapiens, UniProt P35968). Briefly: KDR kinase activity inhibition test (HTRF). Type of test: biochemical. The conditions noted are these: read-out: IC50, inhibitory effects on KDR kinase activity. As to the method:
as §1, §2
(1) Use 1×kinase reaction buffer to prepare 2.5×KDR kinase solution (250 μM), transfer 2 μL of the kinase solution to the 384 reaction plate, and add 1 μL of the test compound solution of gradient concentration to the 384 reaction plate (Greiner, Cat #784075), centrifuge for 1 minute (1000 rpm), and incubate at 25° C. for 10 minutes.
as §3, §4, §5

The test system of the next test is MV-4-11 cells. Briefly: Detection of MV-4-11 cell activity (CellTiter-Glo). Type of test: cell-based. The settings on record: Homo sapiens, MV4-11, 120 h, 5 days, CTG, read-out: IC50, inhibitory effects on MV-4-11 cell activity. As for the experimental part:
The CellTiter-Glo (CTG) luminescence method was used to detect the effect of compounds on the activity of MV-4-11 cells.
Tested compounds: compound prepared in the Examples of the present invention.
Add 100 μL containing 20,000 MV-4-11 (human myeloid monocytic leukemia cells, from the Cell Bank of the Chinese Academy of Sciences, Cat. No. SCSP-5031) cell suspension to 96-well flat-bottom clear-bottomed cell plates (Corning, Cat #3603), and then add 100 μL of cell culture medium containing a series of concentrations of the compound to be tested, with a total volume of 200 μL per well. The final gradient concentrations of the compounds were 500 nM, 125 nM, 31.25 nM, 7.813 nM, 1.953 nM, 0.488 nM, 0.122 nM, 0.031 nM, and 0.008 nM, and the final DMSO content was 0.5%. Set cells with the cell culture medium containing 0.5% DMSO but without compounds as the 100% control; set the culture medium wells without cells as 0% background control. Incubate the cell plate in a humidified incubator at 37° C. and 5% CO2 for 5 days. After 5 days, take out the cell plate, centrifuge (1000 rpm) for 5 minutes, remove and discard 100 μL supernatant, add 100 μL CTG reagent (Promega, Cat #G7572) to each well, shake at room temperature for 10 minutes to promote cell lysis, and incubate at room temperature for 30 minutes to stabilize the luminescence signal. Use a microplate reader (Molecular Device, i3X) to read the Luminescent fluorescence value, use GraphPad Prism 5.0 software to analyze the original data, use nonlinear S-curve regression to fit the data to obtain the dose-effect curve (cell survival rate %), and calculate the IC50 value.

KDR, sequence (P35968 20-1356): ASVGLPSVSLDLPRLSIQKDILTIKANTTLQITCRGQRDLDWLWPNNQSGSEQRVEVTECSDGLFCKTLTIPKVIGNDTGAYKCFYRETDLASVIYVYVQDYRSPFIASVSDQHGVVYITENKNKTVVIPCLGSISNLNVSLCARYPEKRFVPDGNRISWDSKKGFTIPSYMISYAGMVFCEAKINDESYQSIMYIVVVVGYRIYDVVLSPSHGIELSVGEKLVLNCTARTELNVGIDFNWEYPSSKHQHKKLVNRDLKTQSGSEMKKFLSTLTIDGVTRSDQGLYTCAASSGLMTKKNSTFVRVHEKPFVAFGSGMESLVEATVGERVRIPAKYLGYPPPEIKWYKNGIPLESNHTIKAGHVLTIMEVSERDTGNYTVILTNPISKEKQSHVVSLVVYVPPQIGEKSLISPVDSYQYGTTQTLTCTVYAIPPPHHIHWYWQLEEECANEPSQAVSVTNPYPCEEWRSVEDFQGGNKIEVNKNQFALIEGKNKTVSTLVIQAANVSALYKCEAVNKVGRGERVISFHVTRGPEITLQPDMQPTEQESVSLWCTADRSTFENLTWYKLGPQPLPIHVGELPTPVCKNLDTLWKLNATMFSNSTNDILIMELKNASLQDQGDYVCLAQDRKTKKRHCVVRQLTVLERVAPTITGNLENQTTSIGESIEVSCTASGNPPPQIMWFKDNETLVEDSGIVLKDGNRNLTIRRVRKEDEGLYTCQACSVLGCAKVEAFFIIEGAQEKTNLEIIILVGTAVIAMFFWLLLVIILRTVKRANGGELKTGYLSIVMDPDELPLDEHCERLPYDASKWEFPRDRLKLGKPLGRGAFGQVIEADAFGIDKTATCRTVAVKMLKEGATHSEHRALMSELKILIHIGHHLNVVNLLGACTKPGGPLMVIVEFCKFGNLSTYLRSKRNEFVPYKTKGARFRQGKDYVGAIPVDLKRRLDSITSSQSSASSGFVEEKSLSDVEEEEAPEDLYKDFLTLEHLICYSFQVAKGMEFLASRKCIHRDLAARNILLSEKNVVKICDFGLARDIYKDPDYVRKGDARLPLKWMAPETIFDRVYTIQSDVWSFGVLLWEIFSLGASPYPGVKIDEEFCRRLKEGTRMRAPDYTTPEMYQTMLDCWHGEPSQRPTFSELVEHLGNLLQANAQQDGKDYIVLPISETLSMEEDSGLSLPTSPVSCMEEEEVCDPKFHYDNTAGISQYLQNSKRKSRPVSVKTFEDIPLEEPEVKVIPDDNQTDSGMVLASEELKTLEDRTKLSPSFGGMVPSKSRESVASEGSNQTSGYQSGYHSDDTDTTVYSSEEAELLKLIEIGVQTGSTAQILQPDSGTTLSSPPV

As to `CN1CCN(c2ncc3cc2OCCCOc2cccc(F)c2-c2cc4c-3n[nH]c4cn2)CC1` [Compound 3, 16-fluoro-5-(4-methylpiperazin-1-yl)-7,11-dioxa-4,19,22,23-tetraazapentacyclo[16.5.2.1^2,6.0^12,17.0^21,24]hexacosa-1(23),2(26),3,5,12,14,16,18,20,24-decaene], the results for the half-inhibitory concentration (IC50) at FLT3, at KDR and in the test on MV-4-11 cells were 5 to 50 nM, 5 to 50 nM and 32 nM, respectively.
`CN1CCN(c2ccc3cc2OCCCOc2cccc(F)c2-c2cc4c-3n[nH]c4cn2)CC1` [Compound 6, 16-fluoro-5-(4-methylpiperazin-1-yl)-7,11-dioxa-19,22,23-triazapentacyclo[16.5.2.1^2,6.0^12,17.0^21,24]hexacosa-1(23),2(26),3,5,12,14,16,18,20,24-decaene]: the half-maximal inhibitory concentration (IC50) on FLT3 is not above 5 nM; on KDR, not above 5 nM; in the test on MV-4-11 cells it was 3.8 nM.
Take `CN1CCN(c2ccc3cc2OCCOCc2cccc(F)c2-c2cc4c-3n[nH]c4cn2)CC1` [Compound 9, 16-fluoro-5-(4-methylpiperazin-1-yl)-7,10-dioxa-19,22,23-triazapentacyclo[16.5.2.1^2,6.0^12,17.0^21,24]hexacosa-1(23),2(26),3,5,12,14,16,18,20,24-decaene]: the IC50 on FLT3 was not above 5 nM; on KDR, not above 5 nM; in the test on MV-4-11 cells, 7 nM.
